Experiments:
MCF-7 cell line = test: MTT cell viability assay, MCF-7; format: cell-based
Description: MCF-7 cells were purchased from Procell Life Science and Technology Co., Ltd., Wuhan, China, and cultured in MEM or Leibovitz’s L-15 medium containing 2% FBS. MCF-7 cells were maintained in a 5% CO2-humidified atmosphere at 37 °C. KCL22, LAMA84, and K562 cells were obtained from the American Type Culture Collection (Manassas, VA, USA). The KBM5 cell line was previously provided by Dr. Bharat Aggarwal (University of Texas M.D. Anderson Cancer Center, Houston, TX, USA). KBM5 cells were cultured in IMDM medium with 10% inactivated FBS and 1% penicillin-streptomycin. KCL22, LAMA84, and K562 cells were cultured in RPMI with 10% FBS and 1% penicillin-streptomycin antibiotics and maintained at 37 °C in a 5% CO2 chamber.
(§1) Cells (1 × 10^4 cells/well) were seeded on a 96-well plate and treated with 4c (0, 5, 10, 15, 30, 50 µM) for 24 h. After 24 h of treatment, 30 µL of MTT solution (2 mg/mL) for 2 h, followed by MTT lysis overnight. Cell viability was analyzed by measuring the absorbance of lysed MTT crystals using VARIOSKAN LUX (Thermo Fisher Scientific Inc., Waltham, MA, USA) at 570 nm.

MCF-10A cells = test: Cytotoxicity assay, MCF-10A; format: cell-based; conditions: normal mammary epithelial cells
Description: as §1

[1] = DFT frontier molecular orbital calculations
Description: Computational DFT studies for the molecules were performed using Gaussian09 [35]. The molecule was built and visualized by the Gaussview 5 program package. The molecular geometry of the molecules was optimized at the B3LYP level with a 6-311++G (d,p) basis set.
FMO analysis of compound 4c was performed using the B3LYP method with a 6-311 (2d, p) basis set. The HOMO of a molecule represents the site where the electron density is highest and is involved in electron donation, whereas the LUMO represents the site where the electron density is lowest and is involved in electron acceptance. The ELUMO-EHOMO energy gap is directly related to the molecule’s chemical reactivity and kinetic stability. The molecule has a smaller energy gap, which is attributed to less stability and more reactivity. In contrast, the molecule has a large energy gap, attributed to being less chemically reactive and having high chemical stability with greater hardness. […] It is observed that the HOMO-LUMO energy gap of 4l decreased by 1.24 eV and 1.04 eV in alpha and beta orbitals, respectively, when compared with the 4c molecule. […] In contrast, LUMO orbitals were localized on dichlorophenyl, triazole groups, and sulphur atoms of the lead molecule 4c. The chemical potential values for 4c and 4i were estimated to be −4.23 eV and −3.91 eV, respectively, and reflects their significant electron-accepting capacity. […]

[2] = Homo sapiens, MCF7, viability of MCF-7 cell line

| Structure (SMILES) | IC50 (MCF-7 cell line; [2]) [µM] | melting point [°C] | further results |
| --- | --- | --- | --- |
| COc1ccc(Cc2nnc(SCc3cn(-c4ccc(OC)cc4)nn3)o2)cc1 [Compound 4f, 2-(4-Methoxybenzyl)-5-(((1-(4-methoxyphenyl)-1H-1,2,3-triazol-4-yl)methyl)thio)-1,3,4-oxadiazole] | 34.5 ± 1.54 | 90 to 92 | – |
| COc1ccc(Cc2nnc(SCc3cn(-c4ccc(Cl)cc4)nn3)o2)cc1OC [Compound 4j, 2-(((1-(4-Chlorophenyl)-1H-1,2,3-triazol-4-yl)methyl)thio)-5-(3,4-dimethoxybenzyl)-1,3,4-oxadiazole] | 40.5 ± 1.61 | 72 to 74 | – |
| COc1ccc(Cc2nnc(SCc3cn(-c4cccc(Cl)c4)nn3)o2)cc1 [Compound 4e, 2-(((1-(3-Chlorophenyl)-1H-1,2,3-triazol-4-yl)methyl)thio)-5-(4-methoxybenzyl)-1,3,4-oxadiazole] | 9 to 16 | 94 to 96 | IC50 (MCF-7 cell line; viability of MCF-7 cell line): 16.9 ± 1.23 µM; IC50 (MCF-10A cells; Homo sapiens, MCF-10A): > 100 µM |
| COc1ccc(Cc2nnc(SCc3cn(-c4ccc(Cl)cc4)nn3)o2)cc1 [Compound 4a, 2-(((1-(4-Chlorophenyl)-1H-1,2,3-triazol-4-yl)methyl)thio)-5-(4-methoxybenzyl)-1,3,4-oxadiazole] | 9.58 ± 0.98 | 92 to 94 | IC50 (MCF-10A cells; Homo sapiens, MCF-10A): > 100 µM |
| COc1cccc2c1C(=O)c1c(O)c3c(c(O)c1C2=O)C[C@@](O)(C(=O)CO)C[C@@H]3O[C@H]1C[C@H](N)[C@H](O)[C@H](C)O1 [Doxorubicin, reference compound] | 0.91 ± 0.04 | – | – |
| COc1ccc(Cc2nnc(SCc3cn(-c4ccccc4O)nn3)o2)cc1OC [Compound 4p, 2-(4-(((5-(3,4-Dimethoxybenzyl)-1,3,4-oxadiazol-2-yl)thio)methyl)-1H-1,2,3-triazol-1-yl)phenol] | 65 ± 1.81 | 122 to 124 | – |
| COc1ccc(Cc2nnc(SCc3cn(-c4ccccc4C)nn3)o2)cc1 [Compound 4h, 2-(4-Methoxybenzyl)-5-(((1-(o-tolyl)-1H-1,2,3-triazol-4-yl)methyl)thio)-1,3,4-oxadiazole] | 26.2 ± 1.42 | – | – |
| COc1ccc(Cc2nnc(SCc3cn(-c4ccccc4C)nn3)o2)cc1OC [Compound 4r, 2-(3,4-Dimethoxybenzyl)-5-(((1-(o-tolyl)-1H-1,2,3-triazol-4-yl)methyl)thio)-1,3,4-oxadia-zole] | – | – | IC50 (MCF-7 cell line; viability of MCF-7 cell line): 35.7 ± 1.55 µM |
| COc1ccc(Cc2nnc(SCc3cn(-c4ccccc4)nn3)o2)cc1OC [Compound 4m, 2-(3,4-Dimethoxybenzyl)-5-(((1-phenyl-1H-1,2,3-triazol-4-yl)methyl)thio)-1,3,4-oxadiazole] | 28.3 ± 1.45 | 46 to 48 | – |
| COc1ccc(Cc2nnc(SCc3cn(-c4ccc(Cl)c(Cl)c4)nn3)o2)cc1OC [Compound 4l, 2-(((1-(3,4-Dichlorophenyl)-1H-1,2,3-triazol-4-yl)methyl)thio)-5-(3,4-dimethoxybenzyl)-1,3,4-oxadiazole] | 23.8 ± 1.38 | 102 to 104 | decrease of HOMO-LUMO energy gap compared with the 4c molecule ([1]; alpha orbitals): 1.24 eV; decrease of HOMO-LUMO energy gap compared with the 4c molecule ([1]; beta orbitals): 1.04 eV |
| COc1ccc(Cc2nnc(SCc3cn(-c4cccc(Cl)c4)nn3)o2)cc1OC [Compound 4n, 2-(((1-(3-Chlorophenyl)-1H-1,2,3-triazol-4-yl)methyl)thio)-5-(3,4-dimethoxybenzyl)-1,3,4-oxadiazole] | 23.2 ± 1.37 | 70 to 72 | – |
| COc1ccc(Cc2nnc(SCc3cn(-c4ccc(O)cc4)nn3)o2)cc1 [Compound 4g, 4-(4-(((5-(4-Methoxybenzyl)-1,3,4-oxadiazol-2-yl)thio)methyl)-1H-1,2,3-triazol-1-yl)phenol] | 29.7 ± 1.47 | 94 to 96 | – |
| COc1ccc(Cc2nnc(SCc3cn(-c4ccccc4)nn3)o2)cc1 [Compound 4d, 2-(4-Methoxybenzyl)-5-(((1-phenyl-1H-1,2,3-triazol-4-yl)methyl)thio)-1,3,4-oxadiazole] | 25.8 ± 1.41 | 60 to 62 | – |
| COc1ccc(Cc2nnc(SCc3cn(-c4ccc(C)cc4)nn3)o2)cc1 [Compound 4i, 2-(4-Methoxybenzyl)-5-(((1-(p-tolyl)-1H-1,2,3-triazol-4-yl)methyl)thio)-1,3,4-oxadiazole] | 45.4 ± 1.66 | 104 to 106 | – |
| COc1ccc(-n2cc(CSc3nnc(Cc4ccc(OC)c(OC)c4)o3)nn2)cc1 [Compound 4o, 2-(3,4-Dimethoxybenzyl)-5-(((1-(4-methoxyphenyl)-1H-1,2,3-triazol-4-yl)methyl)thio)-1,3,4-oxadiazole] | 35.8 ± 1.55 | 76 to 78 | – |
| COc1ccc(Cc2nnc(SCc3cn(-c4ccc(Br)cc4)nn3)o2)cc1OC [Compound 4k, 2-(((1-(4-Bromophenyl)-1H-1,2,3-triazol-4-yl)methyl)thio)-5-(3,4-dimethoxybenzyl)-1,3,4-oxadiazole] | 31.9 ± 1.5 | 98 to 100 | – |
| COc1ccc(Cc2nnc(SCc3cn(-c4ccc(C)cc4)nn3)o2)cc1OC [Compound 4q, 2-(3,4-Dimethoxybenzyl)-5-(((1-(p-tolyl)-1H-1,2,3-triazol-4-yl)methyl)thio)-1,3,4-oxadia-zole] | – | – | IC50 (MCF-7 cell line; viability of MCF-7 cell line): 19.7 ± 1.3 µM; IC50 (MCF-10A cells): > 100 µM |
| COc1ccc(Cc2nnc(SCc3cn(-c4ccc(Br)cc4)nn3)o2)cc1 [Compound 4b, 2-(((1-(4-Bromophenyl)-1H-1,2,3-triazol-4-yl)methyl)thio)-5-(4-methoxybenzyl)-1,3,4-oxadia-zole] | – | – | IC50 (MCF-7 cell line; viability of MCF-7 cell line): 8.44 ± 0.93 µM; IC50 (MCF-10A cells): > 100 µM |

From publication PMC10296415, “Methyl-Thiol-Bridged Oxadiazole and Triazole Heterocycles as Inhibitors of NF-κB in Chronic Myelogenous Leukemia Cells” (Biomedicines, 2023)
